Reference: US20040197335A1, “Non-myeloablative tolerogenic treatment with tyrphostins” (priority 2003, published 2004)
Where two headings read alike, the source gives them in different places.

Tests used:
Format in all cases: cell-based
[1] = tested on: Human PBMC incubated with MHC-mismatched PBMC; experiment: One-way mixed lymphocyte reaction (primary MLR), [3H]TdR uptake; conditions: for IC50: Table 5, some values marked (mean), read-out: IC 50% (inhibition of Primary MLR); for % response (alloreactive relative response, cpm with/without tyrphostin x100): FIG. 2, response without tyrphostin = 100%; for cpm: no tyrphostin 10,734 cpm; for cpm ± SD: no tyrphostin 30,520 cpm
Procedure: Cell sources: Human peripheral blood mononuclear cells (PBMC) were obtained from healthy human donors after separation on Ficoll-Paque density gradient essentially as described in Boyum, A. Scand. J Lab. Invest. […] Reagents:
One-way mixed lymphocyte reaction (MLR assay): Responding cells derived from donor A (5×10^4) were cultured in round-bottom microwell plates with an equal number (5×10^4) of irradiated (6000 cGy) donor B PBMC with and without tyrphostins. […] During the last 18 hours of incubation, cultures were pulsed with 2 μCi of [^3H] TdR.
(§1) Harvesting and radioactivity determination: Harvesting was carried out by a multiple-sample cell harvester and radioactivity, expressed in counts per minutes (cpm), was determined in a liquid scintillation β-counter.
Human PBMC were incubated either with autologous or with MHC-mismatched PBMC in a one-way MLR assay, with and without various concentrations of tyrphostins, as is described hereinabove.
In this case, the alloreactive response without the tyrphostins was considered as 100% response. Percentage of response was calculated according to the following formula: b/a×100; where a=cpm in cultures without tyrphostin, b=cpm in cultures with tyrphostin.

[2] = tested on: donor A anti-donor B-primed human PBMC vs donor B PBMC; experiment: Secondary MLR of alloantigen-primed PBMC against priming donor B; conditions: then removed, priming without tyrphostin = 100%
Procedure: (§2) PBMC from donor A (10×10^6) were stimulated with equal number of irradiated (6000 cGy) donor B PBMC, with and without tyrphostins, in a total volume of 20 ml culture medium supplemented with 10% heat inactivated human AB^+ serum (mixed lymphocyte culture, MLC). Cultures were placed vertically in 25 cm tissue culture flasks in a 5% CO2, humidified incubator at 37° C. After 10 days, cells were washed twice to remove the tyrphostin, and tested for their ability to respond in the MLR and the primary mitogenic response assay described hereinabove.
(§3) The alloreactivity of donor A anti-donor B-primed cells (5×10^4) was tested in a 6-day one-way primary MLR assay against third party unrelated donor C PBMC (10^5), or against donor A cells (background control). Cultures were placed in round-bottom microwell plates. On day 5, cultures were pulsed with 2 μCi [^3H] TdR/well for 16-18 hours and then harvested. […] After 48 hours at 37° C. in a 5% CO2 humidified incubator, cultures were pulsed with 2 μCi [^3H] TdR for another 16-18 hours and then harvested.
as §1
(§4) […] After 10 days the tyrphostin was removed and the primed cells were tested for their ability to respond in a secondary MLR assay against the priming (donor B) alloantigens, in a primary MLR assay against third party unrelated alloantigens (donor C), and to non-specific stimulation in a mitogenic assay. […] Percentage of response was calculated according to the formula described above.

[3] = tested on: donor A anti-donor B-primed human PBMC stimulated with PHA; experiment: Mitogenic response (PHA) of alloantigen-primed PBMC; conditions: then removed, priming without tyrphostin = 100%
Procedure: as §2
Cultures were incubated for 48 hours in a total volume of 0.2 ml culture medium supplemented with 10% heat-inactivated human AB^+ serum at 37° C. in a 5% CO2 humidified incubator, pulsed for 16-18 hours with 1 μCi [^3H]TdR/well, and then harvested.
as §1, §4

[4] = tested on: donor A anti-donor B-primed human PBMC vs third party unrelated donor C PBMC; experiment: Primary MLR of alloantigen-primed PBMC against third party unrelated donor C; conditions: then removed, priming without tyrphostin = 100%
Procedure: as §2, §3, §1, §4

[5] = tested on: Human PBMC stimulated with phytohemagglutinin (PHA); experiment: Primary mitogenic response assay (PHA), [3H]TdR uptake; conditions: Table 6, tyrphostin 20 μM; for inhibition at 20 µM: Homo sapiens, PBMC, 96 h; for cpm ± SD: PHA without tyrphostin 14,959±644, medium 155±37
Procedure: Mitogens: Phytohemagglutinin (PHA) and concanavalin A (Con-A) were dissolved in saline and diluted to their final concentration in culture medium. Anti-CD3 (OK3 stock solution 1 μg/ml) was diluted to 0.2 μg/ml final concentration in culture medium.
Responding PBMC cells (10^5) derived from donor A were cultured in flat-bottom microwell plates with and without tyrphostins, and with phytohemagglutinin (PHA) 1 μg/ml, or concanavalin A 18 μg/ml. […] During the last 18 hours of incubation, cultures were pulsed with 1 μCi of [^3H] TdR.
as §1

[6] = primed 10 days with tyrphostin 20 μM
[7] = primed 10 days with tyrphostin 40 μM
[8] = primed 10 days with tyrphostin 5 μM
[9] = primed 10 days with tyrphostin 10 μM
[10] = Table 2, primary MLR, tyrphostin 5 μM
[11] = Table 2, primary MLR, tyrphostin 10 μM
[12] = Homo sapiens, PBMC, 144 h, Table 2, primary MLR, tyrphostin 10 μM
[13] = Homo sapiens, PBMC, 144 h, Table 2, primary MLR, tyrphostin 50 μM
[14] = Table 2, primary MLR, tyrphostin 50 μM
[15] = primed 10 days with tyrphostin 30 μM
[16] = Homo sapiens, PBMC, 144 h, Table 3, primary MLR, tyrphostin 25 μM
[17] = Homo sapiens, PBMC, 144 h, Table 3, primary MLR, tyrphostin 50 μM
[18] = Table 3, primary MLR, tyrphostin 25 μM
[19] = Table 3, primary MLR, tyrphostin 50 μM

Compound: 3-(3,5-dimethyl-H-pyrrol-2-yl-methylene)-2-oxo-2,3-dihydro-1H-indole-5-sulfonic acid dimethylamide [Tyr 16]
- % Inhibition ([1]; Table 4, primary MLR, tyrphostin 1 μM): 62%
- IC50 [1]: 4 µM

Compound: N#CC(=Cc1cc(O)c(O)c(CSCCCc2ccccc2)c1)C(=O)NCc1ccccc1 [Tyr 2, N-benzyl-2-cyano-3-[3,4-dihydroxy-5-(3-phenylpropylsulfanylmethyl)-phenyl]-acrylamide]
- % Response to primary stimulator [2, 6]: 280%
- % Response to primary stimulator [2, 7]: 15%
- % Response to PHA [3, 6]: 900%
- % Response to PHA [3, 7]: 254%
- % response (alloreactive relative response, cpm with/without tyrphostin x100) ([1]; primary MLR, tyrphostin 10 μM): 73%
- % response (alloreactive relative response, cpm with/without tyrphostin x100) ([1]; primary MLR, tyrphostin 50 μM): 0%
- inhibition at 20 µM ([1]; Homo sapiens, PBMC, 144 h, Table 2, primary MLR, tyrphostin 20 μM): 73%
- inhibition at 40 µM ([1]; Homo sapiens, PBMC, 144 h, Table 2, primary MLR, tyrphostin 40 μM): 95%
- IC50 ([1]; Homo sapiens, PBMC): 22 µM
- cpm ([1]; Table 2, primary MLR, tyrphostin 20 μM): 2,863 cpm
- cpm ([1]; Table 2, primary MLR, tyrphostin 40 μM): 490 cpm
- % Response to unrelated stimulator [4, 6]: 257%
- % Response to unrelated stimulator [4, 7]: 138%

Compound: Cc1ccc(-c2nn(C(C)(C)C)c3ncnc(N)c23)cc1 [Tyr 3, 4-amino-1-t-butyl-3-(p-toluyl)pyrazolo[3,4-d]pyrimidine]
- % Response to primary stimulator [2, 8]: 65%
- % Response to primary stimulator [2, 9]: 24 ± 10%
- % Response to primary stimulator [2, 6]: 24 ± 18%
- % Response to PHA [3, 8]: 26%
- % Response to PHA [3, 9]: 110 ± 35%
- % Response to PHA [3, 6]: 30 ± 28^ %
- inhibition at 20 µM ([5]; mitogenic response): 98%
- cpm ± SD [5]: 300 ± 24 cpm
- cpm [1, 10]: 3,130 cpm
- cpm [1, 11]: 145 cpm
- % Response to unrelated stimulator [4, 8]: 55%
- % Response to unrelated stimulator [4, 9]: 206 ± 99%
- % Response to unrelated stimulator [4, 6]: 57 ± 44^ %

Compound: CC(C)(C)n1nc(-c2ccc(Cl)cc2)c2c(N)ncnc21 [Tyr 4, 4-amino-1-t-butyl-3-(p-chlorophenyl)pyrazolo[3,4-d]pyrimidine]
- % Response to primary stimulator [2, 8]: 132%
- % Response to primary stimulator [2, 9]: 13 ± 4.5%
- % Response to primary stimulator [2, 6]: 6.5 ± 0.5%
- % Response to PHA [3, 8]: 29%
- % Response to PHA [3, 9]: 120 ± 40%
- % Response to PHA [3, 6]: 40 ± 32^ %
- inhibition at 20 µM ([5]; mitogenic response): 98%
- cpm ± SD [5]: 230 ± 115 cpm
- cpm [1, 10]: 3,316 cpm
- cpm [1, 11]: 580 cpm
- % Response to unrelated stimulator [4, 8]: 145%
- % Response to unrelated stimulator [4, 9]: 288 ± 122^ %
- % Response to unrelated stimulator [4, 6]: 204 ± 18%

Compound: N#CC(=Cc1ccc(O)c(O)c1)C(=O)NCCCCc1ccccc1 [Tyr 5, 2-cyano-3-(3,4-dihydroxyphenyl)-N-(4-phenylbutyl)-acrylamide]
- % response (alloreactive relative response, cpm with/without tyrphostin x100) ([1]; primary MLR, tyrphostin 10 μM): 32%
- % response (alloreactive relative response, cpm with/without tyrphostin x100) ([1]; primary MLR, tyrphostin 50 μM): 13%
- inhibition at 10 µM [1, 12]: 40%
- inhibition at 50 µM [1, 13]: 70%
- IC50 ([1]; Homo sapiens, PBMC): 34 µM
- cpm [1, 11]: 6,413 cpm
- cpm [1, 14]: 3,156 cpm

Compound: N#CC(=Cc1cc(O)c(O)c(CSCCc2ccccc2)c1)C(=O)NCCCCc1ccccc1 [Tyr 6, 2-cyano-3-(3,4-dihydroxy-5-phenethylsulfanylmethyl-phenyl)-N-(4-phenylbutyl)-acrylamide]
- % Response to primary stimulator [2, 9]: 32%
- % Response to primary stimulator [2, 6]: 32 ± 0%
- % Response to primary stimulator [2, 15]: 46%
- % Response to PHA [3, 9]: 152%
- % Response to PHA [3, 6]: 62 ± 42^ %
- % Response to PHA [3, 15]: 20%
- inhibition at 20 µM ([5]; mitogenic response): 70%
- cpm ± SD [5]: 4,662 ± 104 cpm
- inhibition at 10 µM [1, 12]: 59%
- inhibition at 50 µM [1, 13]: 99%
- IC50 ([1]; Homo sapiens, PBMC): 23 µM
- cpm [1, 11]: 4,431 cpm
- cpm [1, 14]: 168 cpm
- % Response to unrelated stimulator [4, 9]: 250%
- % Response to unrelated stimulator [4, 6]: 220 ± 93%
- % Response to unrelated stimulator [4, 15]: 185%

Compound: N#CC(C#N)=Cc1ccc([N+](=O)[O-])c(O)c1 [Tyr 7, 2-(3-hydroxy-4-nitro-benzylidene)malononitrile]
- inhibition at 50 µM [1, 13]: 50%
- inhibition at 100 µM ([1]; Homo sapiens, PBMC, 144 h, Table 2, primary MLR, tyrphostin 100 μM): 95%
- IC50 ([1]; Homo sapiens, PBMC): 36 µM
- cpm [1, 14]: 5,348 cpm
- cpm ([1]; Table 2, primary MLR, tyrphostin 100 μM): 512 cpm

Compound: COc1cc2ncnc(Nc3ccc(C(N)=O)cc3)c2cc1OC [Tyr 8, 4-(6,7-dimethoxyquinazoline-4-yl-amino)-benzamide]
- inhibition at 25 µM [1, 16]: 49%
- inhibition at 50 µM [1, 17]: 63%
- IC50 ([1]; Homo sapiens, PBMC): 43 µM
- cpm ± SD [1, 18]: 12,452 cpm
- cpm ± SD [1, 19]: 11,293 cpm

Compound: COc1cc2ncnc(Nc3ccc(O)cc3)c2cc1OC [Tyr 9, 4-(6,7-dimethoxyquinazoline-4-yl-amino)-phenol]
- inhibition at 20 µM ([5]; mitogenic response): 70%
- cpm ± SD [5]: 4,582 ± 617 cpm
- inhibition at 25 µM [1, 16]: 95%
- inhibition at 50 µM [1, 17]: 99%
- IC50 ([1]; Homo sapiens, PBMC): 26 µM
- cpm ± SD [1, 18]: 1,367 cpm
- cpm ± SD [1, 19]: 371 cpm

Compound: CC(C)(C)n1nc(-c2cccs2)c2c(N)ncnc21 [Tyr 15, 4-amino-1-t-butyl-3-(2-thiophene)pyrazolo[3,4-d]pyrimidine]
- IC50 [1]: 7 µM

Compound: COc1ccc(-c2nn(C(C)(C)C)c3ncnc(N)c23)cc1OC [Tyr 19, 4-amino-1-t-butyl-3-(3,4-dimethoxyphenyl)-pyrazolo[3,4-d]pyrimidine]
- inhibition at 20 µM ([5]; mitogenic response): 96%
- cpm ± SD [5]: 553 ± 59 cpm
- inhibition at 10 µM ([1]; Homo sapiens, PBMC, 144 h, Table 4, primary MLR, tyrphostin 10 μM): 63%
- inhibition at 20 µM ([1]; Homo sapiens, PBMC, 144 h, Table 4, primary MLR, tyrphostin 20 μM): 80%
- IC50 ([1]; Homo sapiens, PBMC): 3 µM

Compound: CC(C)(C)c1cc(C=C(C#N)C(N)=S)cc(C(C)(C)C)c1O [Tyr 23, 2-cyano-3-(3,5-di-t-butyl-4-hydroxyphenyl)-thioacrylamide]
- inhibition at 20 µM ([5]; mitogenic response): 68%
- cpm ± SD [5]: 4,831 ± 1026 cpm

Compound: N#CC(=Cc1c[nH]c2ccccc12)c1[nH]nc(N)c1C#N [Tyr 24, 3-amino-5-[1-cyano-2-(1H-indol-3-yl)vinyl]-1H-pyrazole-4-carbonitrile]
- inhibition at 20 µM ([5]; mitogenic response): 96%
- cpm ± SD [5]: 533 ± 45 cpm

Compound: N#CC(=Cc1ccc(O)c(O)c1)C(=S)NCc1ccccc1 [Tyr 26, N-benzyl-2-cyano-3-(3,4-dihydroxyphenyl)-thioacrylamide]
- inhibition at 20 µM ([5]; mitogenic response): 70%
- cpm ± SD [5]: 4,295 ± 221 cpm

Compound: N#CC(=Cc1cc(O)c(O)c(I)c1)C(=O)NCCCc1ccccc1 [Tyr 32, 2-cyano-3-(3,4-dihydroxy-5-iodophenyl)-N-(4-phenylpropyl)-acrylamide]
- % Inhibition ([5]; mitogenic response): 58%
- cpm ± SD [5]: 6,303 ± 1205 cpm
